Data published in ChEMBL document CHEMBL1201862, “PubChem BioAssay data set” (2004).
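Test compounds were applied to cells in 96-well plates for 48 hours at 5 doses. GI50: concentration for 50% inhibition of growth.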 Calls of active or inactive are those of the source. No stated cut-off is given here; in the data, active = GI50 up to about 1.1 µM and inactive = higher.

Legend:
Experiment in all cases: NCI anticancer screen, dose series, 48 h
MDA-N = test system: MDA-N
HL-60 = test system: HL-60
PC-3 = test system: PC-3
UACC-62 = test system: UACC-62
SN12C = test system: SN12C
NCI-H226 = test system: NCI-H226
BT-549 = test system: BT-549
MDA-MB-231 = test system: MDA-MB-231
SNB-75 = test system: SNB-75
T47D = test system: T47D
EKVX = test system: EKVX
LOX IMVI = test system: LOX IMVI
MDA-MB-435 = test system: MDA-MB-435
NCI-H23 = test system: NCI-H23
HOP-62 = test system: HOP-62
U-251 = test system: U-251
HT-29 = test system: HT-29
IGROV-1 = test system: IGROV-1
NCI-H460 = test system: NCI-H460
MOLT-4 = test system: MOLT-4

Measured: GI50

C=C1C(C(=O)OC)[C@H]1C(=O)OC (stereo not given in full)
inactive: MDA-N > 100 µM | HL-60 > 100 µM | PC-3 > 100 µM | UACC-62 > 100 µM | SN12C > 100 µM | NCI-H226 > 100 µM | BT-549 > 100 µM | MDA-MB-231 > 100 µM | SNB-75 > 100 µM | T47D > 100 µM | EKVX > 100 µM | LOX IMVI > 100 µM | MDA-MB-435 > 100 µM | NCI-H23 > 100 µM | HOP-62 > 100 µM | U-251 > 100 µM | HT-29 > 100 µM | IGROV-1 > 100 µM | NCI-H460 > 100 µM | MOLT-4 > 100 µM

O=C(NC(=S)Nc1ccc2c(c1)Sc1ccccc1O2)c1ccc([N+](=O)[O-])cc1
inactive: MDA-N > 100 µM | HL-60 > 100 µM | PC-3 > 100 µM | UACC-62 > 100 µM | SN12C > 100 µM | NCI-H226 > 100 µM | BT-549 > 100 µM | MDA-MB-231 > 100 µM | SNB-75 > 100 µM | T47D > 100 µM | EKVX > 100 µM | LOX IMVI > 100 µM | MDA-MB-435 > 100 µM | NCI-H23 > 100 µM | HOP-62 > 100 µM | U-251 > 100 µM | HT-29 > 100 µM | IGROV-1 > 100 µM | NCI-H460 > 100 µM

CCOC(=O)/C=C(/C(=O)OCC)n1ccc(=O)[nH]c1=O
inactive: MDA-N 10.8 µM | HL-60 1.78 µM | PC-3 13.8 µM | UACC-62 11.8 µM | SN12C 7.78 µM | NCI-H226 6 µM | BT-549 12.2 µM | MDA-MB-231 10.8 µM | SNB-75 14 µM | T47D 3.4 µM | EKVX 4.86 µM | LOX IMVI 7.48 µM | MDA-MB-435 10.8 µM | NCI-H23 10.4 µM | HOP-62 19.6 µM | U-251 13.5 µM | HT-29 10.9 µM | IGROV-1 15.2 µM | NCI-H460 14.6 µM | MOLT-4 2.25 µM

O=c1cc(N2CCOCC2)n2c(ccc3ccccc32)n1
inactive: MDA-N 31.7 µM | HL-60 > 100 µM | PC-3 > 100 µM | UACC-62 > 100 µM | SN12C > 100 µM | NCI-H226 > 100 µM | BT-549 > 100 µM | MDA-MB-231 > 100 µM | SNB-75 > 100 µM | T47D > 100 µM | EKVX > 100 µM | LOX IMVI > 100 µM | MDA-MB-435 > 100 µM | NCI-H23 > 100 µM | HOP-62 > 100 µM | U-251 > 100 µM | HT-29 > 100 µM | IGROV-1 > 100 µM | MOLT-4 > 100 µM

CC(=O)OCc1cc(CCC(=O)NCCNc2c3ccccc3nc3ccccc23)cc(COC(C)=O)c1O[Si](C)(C)C(C)(C)C
inactive: MDA-N 5.85 µM | HL-60 2.87 µM | PC-3 10.5 µM | UACC-62 6.9 µM | SN12C 1.83 µM | NCI-H226 2.19 µM | BT-549 13.7 µM | MDA-MB-231 3.37 µM | T47D 1.97 µM | EKVX 13.4 µM | LOX IMVI 1.95 µM | MDA-MB-435 2.97 µM | NCI-H23 14.5 µM | HOP-62 13.6 µM | U-251 4.88 µM | HT-29 2.63 µM | IGROV-1 10.4 µM | NCI-H460 3.72 µM | MOLT-4 2.4 µM

O=C1NC2CCCCC2NC1=C(C(=O)c1ccccc1)C(=O)c1ccccc1 (stereo not given)
inactive: MDA-N 70.3 µM | HL-60 46.7 µM | PC-3 53 µM | UACC-62 22.8 µM | SN12C 20.7 µM | NCI-H226 12.5 µM | BT-549 10.9 µM | MDA-MB-231 24.3 µM | T47D > 100 µM | EKVX 70.6 µM | LOX IMVI 38.1 µM | MDA-MB-435 46.6 µM | NCI-H23 22.4 µM | HOP-62 52.6 µM | U-251 26.6 µM | HT-29 36.8 µM | IGROV-1 26.3 µM | NCI-H460 27.4 µM | MOLT-4 20.5 µM

O=C(/C=c1\oc(=O)/c(=C/C(=O)c2ccc(Cl)cc2)oc1=O)c1ccc(Cl)cc1
inactive: MDA-N > 100 µM | HL-60 > 100 µM | PC-3 > 100 µM | UACC-62 > 100 µM | SN12C > 100 µM | NCI-H226 > 100 µM | BT-549 10.4 µM | MDA-MB-231 > 100 µM | T47D 53.7 µM | EKVX > 100 µM | LOX IMVI 48.4 µM | MDA-MB-435 > 100 µM | NCI-H23 > 100 µM | HOP-62 > 100 µM | U-251 > 100 µM | HT-29 > 100 µM | IGROV-1 63.4 µM | NCI-H460 > 100 µM | MOLT-4 23.8 µM
